These results are taken from US20230151309A1, “PLANT-BASED HYDROALCOHOLIC FORMULATIONS FOR IMPROVING LIVER HEALTH” (priority 2021, published 2023).

SMILES strings stand for the structures. “Also recorded” adds a separate entry of the source.

The nature of data set [1]: EGCG level in the botanical-infused alcoholic composition by LC-MS/MS (EGCG stability). In kind it is physicochemical. The following applies: final alcoholic composition, pH below 4.65. On the procedure:
Intracellular ATP was expressed as % ATP vs. Vehicle Control. Data points represent mean±SEM of N=3 replicates.
The samples were tested by LC-MS/MS using a Waters Acquity UPLC system in-line with a Waters Xevo TO-S mass spectrometer via an electrospray interface. An EGCG powdered standard was purchased from Sigma-Aldrich. The EGCG standard was prepared as a 1 mg/mL solution in PBS containing 0.2% ascorbic acid and 0.005% EDTA to calculate the standard curve. EGCG was spiked into intestinal media at a 5% ratio of standard to media (% v/v). EGCG internal standard (IS) was prepared as a 200 ng/ml solution also using PBS containing 0.2% ascorbic acid and 0.005% EDTA. Ten μL of EGCG IS was added to 25 μL of EGCG standard, vortex mixed, and 2× extracted with 350 μL of ethyl acetate. […]
EGCG and samples of the alcoholic beverage composition were separated using a 1.0 mm×100 mm Waters HSS T3 column with 0.3% acetic acid/HO as mobile phase A and 0.3% acetic acid/acetonitrile as mobile. phase B. For gradient elution, initial B was 1%, increased to 95% Bat 2 minutes, 95% Bat 4 minutes, and back to 1% Bat 4.5 minutes. […] Data was analyzed using Waters Targetlynx application software and automatically exported as a CSV file for reporting.
EGCG was detected in the final alcoholic composition. […]

The next data set deals with intestinal tissue. As to the kind of experiment: Intestinal tissue viability by MTT assay (HuDMOP). In kind it is cell-based, human. The following applies: 100 μL, 24 hr, % viable vs. vehicle control. On the technique in general: Tetrazolium assays rely on reduction of a dye to a coloured formazan, in cell work by metabolically active cells.
A short description of data set [2]: EGCG kinetics in two-compartment HuDMOP (intestine to liver to perfusate), LC-MS/MS. The data set is classed as in vitro ADME, human. An excerpt:
The human dynamic multiple organ plate (HuDMOP) developed by IONTOX (U.S. Pat. No. 9,631,167 B2) was used for testing. This plate is an accepted and unique state-of-the-art in vitro platform for evaluating drugs and chemicals. The FDA recognizes such in vitro models that provide comparative information of relative toxicity between an FDA approved compound and a new submission or in vitro data that focuses on mechanism. The HuDMOP system allows collection of intestinal absorption data, pharmacokinetic data, safety, and efficacy in a single model and can feature up to 6 organ compartments. Flow between the compartments is controlled through selection of dialysis membrane appropriate for the relevant organ systems, pressures, and membrane areas. The HuDMOP system is also used to generate data to support efficacy claims for botanicals.
Simulated blood consisted of saline with human serum albumin.
Epigallocatechin gallate (EGCG) from the novel composition was used to track its intestinal permeability, its movement into simulated blood and delivery to the liver. EGCG content was measured by LC-MS/MS (FIG. 6).

Another data set has as its system Fa2N-4 cells. The following applies: human, 24 h.
The test system of data set [3] is NADPH Quinone Dehydrogenase 1 (NQO1). The following applies: liver cells, 12 and 24 hr post exposure.
Text: (§1) The model consisted of human 3D epidermal model (Epiltestinal tissue from MarTek) linked to HepG2 cells (Liver) linked by unidirectional simulated blood flow. Simulated blood consisted of saline with human serum albumin.
(§2) Total RNA from the liver cells was obtained following the 12 and 24 hr time points post exposure to look at specific gene expression (NQO1, HMOX1, GSR) that are part of a group that protect the cell from oxidative stress and inflammation. An increase in fold change >2 is typically considered biologically relevant.
RNA was extracted from liver cells using the RNeasy Mini kit along with Proteinase Kand DNase I digestion to remove proteins and gDNA. DNase I was purchased from Qiagen. Total RNA was quantified using the NanoDrop 2000. The RNA obtained was used to measure the expression of the above target genes by RT-qPCR. 10.10. TaqMan* fast virus 1-step master mix (Thermo Fisher) was used. One-Step RT-qPCR was performed using the QuantStudio 5 PCR Instrument from Thermo Fisher and by following the manufacturer's recommended cycling protocol. All primer/probe sets were obtained from Thermo Fisher.
In another data set the test system is Heme oxygenase-1 (HMOX1). The following applies: liver cells, 12 and 24 hr post exposure.
The subject of data set [4] is Glutathione Reductase (GSR). The following applies: liver cells, 12 and 24 hr post exposure.
Text: as §1, §2
RNA was extracted from liver cells using the RNeasy Mini kit along with Proteinase Kand DNase I digestion to remove proteins and gDNA. […] Total RNA was quantified using the NanoDrop 2000. The RNA obtained was used to measure the expression of the above target genes by RT-qPCR. […] TaqMan* fast virus 1-step master mix (Thermo Fisher) was used. One-Step RT-qPCR was performed using the QuantStudio 5 PCR Instrument from Thermo Fisher and by following the manufacturer's recommended cycling protocol. All primer/probe sets were obtained from Thermo Fisher.
A further data set relates to HepG2 liver cells. As to the kind of experiment: Reactive oxygen species (DCFDA/H2DCFDA Cellular ROS Assay Kit) in liver cells. In kind it is cell-based. The following applies: HepG2, 24 hours; ethanol at 2, 3 and 4%.

Experimental for Fa2N-4 cells: Maximum Tolerated Dose is indicated as the % EtOH where viability as assayed using ATP levels diminished to below 50%.
Samples of botanical-infused alcoholic composition were prepared as follows. The samples were diluted to in deionized water to bring the alcohol concentration down to 8%. […] Intracellular ATP was expressed as % ATP vs. Vehicle Control. Data points represent mean±SEM of N=3 replicates.
The samples were also diluted to 6 and 2% alcohol.
Text for Heme oxygenase-1 (HMOX1): as §1
Total RNA from the liver cells was obtained following the 12 and 24 hr time points post exposure to look at specific gene expression (NQO1, HMOX1, GSR) that are part of a group that protect the cell from oxidative stress and inflammation.
RNA was extracted from liver cells using the RNeasy Mini kit along with Proteinase Kand DNase I digestion to remove proteins and gDNA. DNase I was purchased from Qiagen. Total RNA was quantified using the NanoDrop 2000. The RNA obtained was used to measure the expression of the above target genes by RT-qPCR. […] TaqMan* fast virus 1-step master mix (Thermo Fisher) was used. One-Step RT-qPCR was performed using the QuantStudio 5 PCR Instrument from Thermo Fisher and by following the manufacturer's recommended cycling protocol. All primer/probe sets were obtained from Thermo Fisher.
Experimental for HepG2 liver cells: Reactive Oxygen Species were measured using the DCFDA/H2DCFDA Cellular ROS Assay Kit from Abeam.
Liver stress was measured by measuring the amount of reactive oxygen species (ROS) produced after exposure to the alcoholic composition. HepG2 liver cells were plated and grown overnight. […] Then the cells were exposed to the Test articles for 24 hours at 37° C. with 5% CO2. […] Amount of ROS was measured using the DCFDA/H2DCFDA Cellular ROS Assay Kit from Abeam.
Data are expressed as Fold Change vs. Negative Control. Bars represent mean±SEM of three replicate samples.
Experimental for intestinal tissue: as §1
Diluted ethanol (EtOH) alone or a composition of the present invention diluted to the same level as the EtOH alone test are applied to the apical side of the intestine chamber at the start of the experiment. […] The health of the intestinal tissue was measured with a MTT assay. Pure EGCG was also applied as a control. Tissues were dosed with 100 μL of the solutions and were incubated at 37° C. with 5% CO2 for 24 hr. Cell viability was expressed at % viable vs. vehicle control. Data points represent mean±SEM of N=2 replicates.

Take `O=C(O[C@@H]1Cc2c(O)cc(O)cc2O[C@@H]1c1cc(O)c(O)c(O)c1)c1cc(O)c(O)c(O)c1` [EGCG, epigallocatechin gallate]: in data set [1], the “EGCG stability in the composition” value is recorded as “stable”. Besides, the “health of the intestinal tissue (cell viability, MTT)” value with intestinal tissue is “not affected; also recorded: no cytotoxic effect”. For the same compound, the “time EGCG starts to appear in the lower basolateral chamber” value in data set [2] (after application of composition batch 1 to intestinal tissue) was 2 h. For the same compound, in data set [2] (after applying composition batch 1 to the intestinal tissue), the “time EGCG appears in the liver” value was 6 h. Moreover, the “EGCG in perfusate after processing in the liver compartment” value in data set [2] (composition batch 1) is reported as “remains in the perfusate”. The “EGCG maximum concentration (Cmax)” value in data set [2] (composition batch 1, after passing the intestinal membrane) was “about 1400 ng/ml”. In addition, in data set [2] (composition batch 1, amount constant until 24 hours), the “time of EGCG peak in basolateral chamber” value turned out to be 12 h.
With `CCO` [ethanol], the “health of the intestinal tissue (cell viability, MTT)” value in the data set on intestinal tissue is given as “not affected”. In the data set with Fa2N-4 cells, the “Maximum Tolerated Dose (ethanol causing 50% response in % ATP)” value is recorded as 8%. Also, in data set [3], the NQO1 gene expression result is recorded as “no increase”. Also, the HMOX1 gene expression entry in the data set on Heme oxygenase-1 (HMOX1) is reported as “induces an increase”. Moreover, the GSR gene expression result in data set [4] is listed as “does not produce an increase”.
For the compound `CC(C)(C)OO` [positive control, Tert-butyl hydroperoxide], the “increase in ROS, Fold Change vs. Negative Control” value in the data set on HepG2 liver cells came to 22 fold.
